Test results as given in US6479653B1, “Compositions and method for regulation of transcription” (ARIAD Gene Therapeutics, Inc., priority 1997, dated 2002).
Entries after “also recorded” stand apart in the source; their conditions may differ.

B1: RMTSV: VP16 activation domain fused to RMTS (FRB-minimal lac repressor tetramerization domain-p65) (protein)
chain: EMWHEGLEEASRLYFGERNVKGMFEVLEPLHAMMERGPQTLKETSFNQAYGRDLMEAQEWCRKYMKSGNVKDLTQAWDLYYHVFRRISKVKRKTTLAPNTQTASPRALADSLMQLARQVSRLESGQDEFPTMVFPSGQISQASALAPAPPQVLPQAPAPAPAPAMVSALAQAPAPVPVLAPGPPQAVAPPAPKPTQAGEGTLSEALLQLQFDDEDLGALLGNSTDPAVFTDLASVDNSEFQQLLNQGIPVAPHTTEPMLMEYPEAITRLVTGAQRPPDPAPAPLGAPGLPNGLLSGDEDFSSIADMDFSALLSQISSLGDELHLDGEDVAMAHADALDDFDLDMLGDGDSPGPGFTPHDSAPYGALDMADFEFEQMFTDALGIDEYGG
modifications: left off: small tags and cut ends

Key:
reporter gene = experiment: Transcription assay of p65 activation domain mutants; assay type: cell-based; details: for potency of p65 activation domain to induce the reporter gene, relative to wild type: mutated p65 activation domain
Excerpt: Thus, in one embodiment of this invention, mutations are introduced into the activation domain by standard techniques known in the art, such as site-directed PCR based mutagenesis. In this embodiment, one to five, in some cases one to three, alterations in peptide sequence can be introduced into the DNA coding for the activation domain. Each of these mutations either alone or in combination with one or more other mutations may be readily assayed for its ability to induce the transcription of either transiently transfected or stably integrated target reporter gene constructs. For instance, a construct encoding a fusion protein containing multiple copies of the modified sequence and a DNA binding domain can be introduced into cells and the activity of the encoded fusion protein measured in transcription assays (with a responsive reporter gene construct) and compared to analogous fusion proteins containing wild-type activation domain sequence or a different mutation of interest.
The foregoing is illustrated in the case of the p65 transcription activation domains. Constructs are prepared encoding fusion proteins containing one or more p65 transcription activation domains and a DNA binding domain. The p65 domains may be wild-type (as a control) or may contain any of a variety of alterations in peptide sequence. These mutations can generally be introduced into a variety of p65-derived transcription activation domains. For example, M1 mutations can be introduced into plasmids carrying p65 activation domain coding regions between amino acids 533 and 550, or 361 and 550, or 280 and 550.
Exemplary mutations for p65 transcription activation domains include those intended to increase the potency of the p65 activation domain (including the M1, M2, M6, M7 and M8 mutations) and those intended to decrease the potency (generally slightly) of the activation domain. […] Mutations of the M4 and M5 class change the conserved serine and proline residues between amino-acids 361 and 450. […] In GST pull down assays, the region of the M4 and M5 mutations interacts with TFIIA. […] Thus, mutations for the practitioner to bear in mind include, but are not limited to, the following: […]

[1] = test system: GAL4 responsive reporter gene; experiment: Rapamycin-induced expression of stably integrated GAL4-responsive SEAP reporter in transfected HT1080 B cells; assay type: cell-based

| Molecule | expression of target genes when fused to other acidic type activation domains (reporter gene) | potency of p65 activation domain to induce the reporter gene, relative to wild type (reporter gene) | also measured |
| --- | --- | --- | --- |
| 377-GALALGAGGQVL(SEQ ID NO:11) [M4] | synergistically | very small effect | – |
| 401-GALAQAGAGVG (SEQ ID NO:13) [M5] | synergistically | very small effect | – |
| 529-GDEDASSIADMDASALLSQI (SEQ ID NO:9) [F 533 and F 541 to alanine residues] | – | half of wild type level | – |
| CO[C@H]1C[C@@H]2CC[C@@H](C)[C@@](O)(O2)C(=O)C(=O)N2CCCC[C@H]2C(=O)O[C@H]([C@H](C)C[C@@H]2CC[C@@H](O)[C@H](OC)C2)CC(=O)[C@H](C)/C=C(\C)[C@@H](O)[C@@H](OC)C(=O)[C@H](C)C[C@H](C)/C=C/C=C/C=C/1C [rapamycin, reference compound] | – | – | rapamycin concentration giving peak levels of reporter gene expression ([1]; GF4 with RS, RMTS or RMTSV): 10 nM |
| B1 | – | – | reporter gene expression at 1 nM rapamycin ([1]; GF4 DNA binding receptor, 1 nM rapamycin in the medium): induced the reporter gene expression robustly; reporter gene expression at the lowest level of activation domains expressed ([1]; fixed amount of GF4, 10 nM rapamycin): robust activation of reporter gene expression; also recorded: exceeded the level stimulated by the highest amount of RS fusion proteins |
